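Grown in 96-well plates, cells were treated for 48 hours with each compound at five concentrations. Insufficient inhibition: endpoint recorded as highest concentration tested. TGI: concentration producing complete growth inhibition.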
What was measured:
Experiment in all cases: NCI tumour cell line growth inhibition, 48 h
[1] = system: 786-0 renal
[2] = system: A498 renal
[3] = system: A549 NSCLC
[4] = system: ACHN renal
[5] = system: BT-549 breast
[6] = system: CAKI-1 renal
[7] = system: CCRF-CEM leukemia
[8] = system: COLO 205 colon
[9] = system: DU-145 prostate
[10] = system: EKVX NSCLC
[11] = system: HCC-2998 colon
[12] = system: HCT-116 colon
[13] = system: HCT-15 colon
[14] = system: HOP-62 NSCLC
[15] = system: HOP-92 NSCLC
[16] = system: HT29 colon
[17] = system: IGROV1 ovarian
[18] = system: K-562 leukemia
[19] = system: KM12 colon
[20] = system: LOX IMVI melanoma
[21] = system: M14 melanoma
[22] = system: MCF7 breast
[23] = system: MDA-MB-231 breast
[24] = system: MDA-MB-435
[25] = system: MDA-N
[26] = system: MOLT-4 leukemia
[27] = system: NCI-H226 lung
[28] = system: NCI-H23 lung
[29] = system: NCI-H460 lung
[30] = system: NCI/ADR-RES ovarian
[31] = system: OVCAR-3 ovarian
[32] = system: OVCAR-4 ovarian
[33] = system: OVCAR-5 ovarian
[34] = system: OVCAR-8 ovarian
[35] = system: PC-3 prostate
[36] = system: RPMI-8226 leukemia
[37] = system: RXF 393 renal
[38] = system: SF-295 CNS
[39] = system: SF-539 CNS
[40] = system: SK-MEL-2 melanoma
[41] = system: SK-MEL-28 melanoma
[42] = system: SK-MEL-5 melanoma
[43] = system: SN12C renal
[44] = system: SNB-19 CNS
[45] = system: SNB-75 CNS
[46] = system: SR leukemia
[47] = system: SW-620 colon
[48] = system: T-47D breast
[49] = system: U251 CNS
[50] = system: UACC-257 melanoma
[51] = system: UACC-62 melanoma
[52] = system: UO-31 renal
[53] = system: HL-60(TB) leukemia
[54] = system: HS 578T breast
[55] = system: MALME-3M melanoma
[56] = system: NCI-H522 lung
[57] = system: SF-268 CNS
[58] = system: SK-OV-3 ovarian
[59] = system: TK-10 renal

Measured: TGI

Cc1cn(C(Cc2ccccc2)OCCO)c(=O)[nH]c1=O (stereo not given)
not listed: [53] | [54] | [55] | [56] | [57] | [58] | [59]
> 100 µM: all other assays above

CCCCCC(=O)NC(=S)Nc1nn[nH]n1
not listed: [4] | [5] | [16] | [27] | [30] | [34]
> 100 µM: all other assays above

Reference: PubChem BioAssay (NCI)
